According to ChEMBL document CHEMBL3885881, “DrugMatrix”:

Species: Rattus norvegicus
Test: DrugMatrix - Regimen: Daily Repeat
Assay type: toxicity, organism-based, Sprague-Dawley
Parameters: regimen Daily Repeat, gender Male, age 6-8 weeks
Conditions: in vivo, po, route oral GAVAGE, vehicle 100 % WATER; for ABSOLUTE BASOPHIL / ABSOLUTE EOSINOPHIL / ABSOLUTE LYMPHOCYTE / ABSOLUTE MONOCYTE / ABSOLUTE SEGMENTED NEUTROPHIL / BASOPHIL / EOSINOPHIL / ERYTHROCYTE COUNT / HEMATOCRIT / HEMOGLOBIN / LEUKOCYTE COUNT / LYMPHOCYTE / MEAN CORPUSCULAR HEMOGLOBIN / MEAN CORPUSCULAR HEMOGLOBIN CONCENTRATION / MEAN CORPUSCULAR VOLUME / MONOCYTE / NEUTROPHIL / NUCLEATED RED BLOOD CELLS / PLATELET COUNT: tissue Blood; for ALANINE AMINOTRANSFERASE / ALBUMIN / ALKALINE PHOSPHATASE / ASPARTATE AMINOTRANSFERASE / BLOOD UREA NITROGEN / CARBON DIOXIDE / CHLORIDE / CHOLESTEROL / CREATINE PHOSPHOKINASE / CREATININE / GLUCOSE / LACTATE DEHYDROGENASE / LIPASE / PHOSPHORUS / POTASSIUM / SODIUM / TOTAL BILIRUBIN / TOTAL PROTEIN / URIC ACID: tissue Plasma
[1] = 0 mg/kg, 72 h, dose level Control, time 3 day
[2] = 0 mg/kg, 120 h, dose level Control, time 5 day
[3] = 0.07 mg/kg, 72 h, dose level Low, time 3 day

## Cc1cc(C(C)(C)C)c(O)c(C)c1CC1=NCCN1 [OXYMETAZOLINE]
[1]
  ABSOLUTE BASOPHIL: 0 CELLS/uL
  ABSOLUTE EOSINOPHIL: 123.17 CELLS/uL
  ABSOLUTE LYMPHOCYTE: 12677.83 CELLS/uL
  ABSOLUTE MONOCYTE: 66.17 CELLS/uL
  ABSOLUTE SEGMENTED NEUTROPHIL: 1149.5 CELLS/uL
  BASOPHIL: 0%
  EOSINOPHIL: 0.83%
  ERYTHROCYTE COUNT: 5.26 x10E6/uL
  HEMATOCRIT: 33.07%
  HEMOGLOBIN: 13.43 G/DL
  LEUKOCYTE COUNT: 14.02 x10E3/uL
  LYMPHOCYTE: 90.17%
  MEAN CORPUSCULAR HEMOGLOBIN: 25.62 pg
  MEAN CORPUSCULAR HEMOGLOBIN CONCENTRATION: 40.65 G/DL
  MEAN CORPUSCULAR VOLUME: 63 fL
  MONOCYTE: 0.5%
  NEUTROPHIL: 8.5%
  NUCLEATED RED BLOOD CELLS: 0.17 /100WBC
  PLATELET COUNT: 1142.83 x10E3/uL
  ALANINE AMINOTRANSFERASE: 45.17 u/L
  ALBUMIN: 3.78 G/DL
  ALKALINE PHOSPHATASE: 340.17 u/L
  ASPARTATE AMINOTRANSFERASE: 77.33 u/L
  BLOOD UREA NITROGEN: 14.67 mg/dL
  CARBON DIOXIDE: 28.67 mmol/L
  CHLORIDE: 101.17 MEQ/L
  CHOLESTEROL: 77.67 mg/dL
  CREATINE PHOSPHOKINASE: 263.67 u/L
  CREATININE: 0.15 mg/dL
  GLUCOSE: 169.33 mg/dL
  LACTATE DEHYDROGENASE: 230 u/L
  LIPASE: 9.67 u/L
  PHOSPHORUS: 11.8 mg/dL
  POTASSIUM: 5.91 MEQ/L
  SODIUM: 142.88 MEQ/L
  TOTAL BILIRUBIN: 0.22 mg/dL
  TOTAL PROTEIN: 5.7 G/DL
  URIC ACID: 1.35 mg/dL
[2]
  ABSOLUTE BASOPHIL: 0 CELLS/uL
  ABSOLUTE EOSINOPHIL: 125 CELLS/uL
  ABSOLUTE LYMPHOCYTE: 13809 CELLS/uL
  ABSOLUTE MONOCYTE: 351 CELLS/uL
  ABSOLUTE SEGMENTED NEUTROPHIL: 1581.67 CELLS/uL
  BASOPHIL: 0%
  EOSINOPHIL: 0.67%
  ERYTHROCYTE COUNT: 5.53 x10E6/uL
  HEMATOCRIT: 34.83%
  HEMOGLOBIN: 13.9 G/DL
  LEUKOCYTE COUNT: 15.87 x10E3/uL
  LYMPHOCYTE: 87.5%
  MEAN CORPUSCULAR HEMOGLOBIN: 25.25 pg
  MEAN CORPUSCULAR HEMOGLOBIN CONCENTRATION: 40.08 G/DL
  MEAN CORPUSCULAR VOLUME: 63.05 fL
  MONOCYTE: 2.17%
  NEUTROPHIL: 9.67%
  NUCLEATED RED BLOOD CELLS: 0 /100WBC
  PLATELET COUNT: 1044 x10E3/uL
  ALANINE AMINOTRANSFERASE: 50.67 u/L
  ALBUMIN: 4.33 G/DL
  ALKALINE PHOSPHATASE: 395 u/L
  ASPARTATE AMINOTRANSFERASE: 86 u/L
  BLOOD UREA NITROGEN: 15.33 mg/dL
  CARBON DIOXIDE: 29.33 mmol/L
  CHLORIDE: 101.5 MEQ/L
  CHOLESTEROL: 71.33 mg/dL
  CREATINE PHOSPHOKINASE: 323.17 u/L
  CREATININE: 0.18 mg/dL
  GLUCOSE: 145.67 mg/dL
  LACTATE DEHYDROGENASE: 389.5 u/L
  LIPASE: 9.83 u/L
  PHOSPHORUS: 11.35 mg/dL
  POTASSIUM: 6.39 MEQ/L
  SODIUM: 142.77 MEQ/L
  TOTAL BILIRUBIN: 0.18 mg/dL
  TOTAL PROTEIN: 6.1 G/DL
  URIC ACID: 1.52 mg/dL
[3]
  ABSOLUTE BASOPHIL: 0 CELLS/uL
  ABSOLUTE EOSINOPHIL: 62.33 CELLS/uL
  ABSOLUTE LYMPHOCYTE: 13944.33 CELLS/uL
  ABSOLUTE MONOCYTE: 0 CELLS/uL
  ABSOLUTE SEGMENTED NEUTROPHIL: 1260 CELLS/uL
  BASOPHIL: 0%
  EOSINOPHIL: 0.33%
  ERYTHROCYTE COUNT: 5.43 x10E6/uL
  HEMATOCRIT: 34.37%
  HEMOGLOBIN: 13.87 G/DL
  LEUKOCYTE COUNT: 15.27 x10E3/uL
  LYMPHOCYTE: 91.67%
  MEAN CORPUSCULAR HEMOGLOBIN: 25.53 pg
  MEAN CORPUSCULAR HEMOGLOBIN CONCENTRATION: 40.33 G/DL
  MEAN CORPUSCULAR VOLUME: 63.33 fL
  MONOCYTE: 0%
  NEUTROPHIL: 8%
  NUCLEATED RED BLOOD CELLS: 0.33 /100WBC
  PLATELET COUNT: 1341.33 x10E3/uL
  ALANINE AMINOTRANSFERASE: 49.33 u/L
  ALBUMIN: 3.83 G/DL
  ALKALINE PHOSPHATASE: 309.33 u/L
  ASPARTATE AMINOTRANSFERASE: 74 u/L
  BLOOD UREA NITROGEN: 12.33 mg/dL
  CARBON DIOXIDE: 33.33 mmol/L
  CHLORIDE: 100.33 MEQ/L
  CHOLESTEROL: 68.67 mg/dL
  CREATINE PHOSPHOKINASE: 205.67 u/L
  CREATININE: 0.12 mg/dL
  GLUCOSE: 144.67 mg/dL
  LACTATE DEHYDROGENASE: 166.67 u/L
  LIPASE: 10 u/L
  PHOSPHORUS: 10.43 mg/dL
  POTASSIUM: 6.84 MEQ/L
  SODIUM: 142.8 MEQ/L
  TOTAL BILIRUBIN: 0.2 mg/dL
  TOTAL PROTEIN: 5.67 G/DL
  URIC ACID: 1.37 mg/dL
